# From patent US4411925A, “Branched amides of L-aspartyl-d-amino acid dipeptides” (Pfizer Inc., priority 1980, dated 1983)
# Square brackets hold non-standard residues; d marks the D form. Peptide text beside a SMILES is read from it. * marks the point of attachment. NHiPr = CC(C)N*; OiPr = CC(C)O*
# Test: not given
# Conditions: prior art values (U.S. 3,492,131; Mazur et al.; Sukehiro et al.); cited from earlier work
row,Compound,sweetness relative to sucrose
1,CC(C)OC(=O)[C@@H](C)NC(=O)[C@@H](N)CC(=O)O [L-aspartyl-D-alanine isopropyl ester] (H-Asp-[dA]-OiPr),up to 125 times sucrose

# Test: not given
# Conditions: factor used to calculate the theoretical sweetness of the blends; cited from earlier work
row,Compound,Sweetness potency factor [x sucrose]
1,O=C1NS(=O)(=O)c2ccccc21.[Na] [sodium saccharin],300

# Test: Sweetness potency: gustatory sweetness compared with sucrose standard by expert taste panel
# Type: in vivo
# Conditions: aqueous solutions compared with 7-9% sucrose
# Procedure: The sweetness potency of the instant compounds was determined by comparison of their gustatory sweetnesses with sucrose. Aqueous solutions of the compound of formula (I) diluted to a suitable range of concentrations were compared with a sucrose standard by an expert taste panel. Comparisons were generally made with aqueous sucrose solutions of 7-9%, i.e., 7-9 g. per 100 ml. Higher sucrose concentrations have a distinctive mouthfeel which may influence results and lower sucrose concentration are not indicative of normal use situations. […] All of the sweetness potency values stated herein for the compounds of the invention were determined by this method.
row,Compound,Sweetness potency
1,"C[C@@H](NC(=O)[C@@H](N)CC(=O)O)C(=O)NC(C1CC1)C(C)(C)C (mixture of isomers) [Example 6, L-Aspartyl-D-alanine N-(dl-t-butylcyclopropylcarbinyl)amide]",1200 x sucrose
2,"C[C@@H](NC(=O)[C@@H](N)CC(=O)O)C(=O)NC1C(=O)OCC1(C)C (mixture of isomers) [Example 27, L-Aspartyl-D-alanine N-(DL-2-amino-3,3-dimethyl-4-hydroxybutanoic acid lactone)amide]",100 x sucrose
3,"C[C@@H](NC(=O)[C@@H](N)CC(=O)O)C(=O)NC1C(C)(C)CSC1(C)C (mixture of isomers) [L-Aspartyl-D-alanine N-(2,2,4,4-tetramethyltetrahydrothiophene-3-yl)amide]",800 x sucrose
4,CC1CCCC(C)C1NC(=O)[C@@H](C)NC(=O)[C@@H](N)CC(=O)O (relative stereo) [Example 3],600 x sucrose
5,"CC1CCCCC1NC(=O)[C@@H](C)NC(=O)[C@@H](N)CC(=O)O (stereo partly drawn) [Example 4, L-Aspartyl-D-alanine N-(2-methycyclohexyl)amide]",250 x sucrose
6,"C[C@@H](NC(=O)[C@@H](N)CC(=O)O)C(=O)NC1C(C)(C)CCC1(C)C [Example 7, L-Aspartyl-D-alanine N-(2,2,5,5-tetramethylcyclopent-l-yl)amide]",800 x sucrose
7,"CC1CSCC(C)C1NC(=O)[C@@H](C)NC(=O)[C@@H](N)CC(=O)O (stereo partly drawn) [Example 12, L-Aspartyl-D-alanine-N-(3,5-dimethyltetrahydrothiopyran-4-yl)amide]",200 x sucrose
8,"C[C@@H](NC(=O)[C@@H](N)CC(=O)O)C(=O)NC1C(C)(C)SC1(C)C [Example 16, L-Aspartyl-D-alanine N-(2,2,4,4-tetramethylthietan-3-yl)amide]",2000 x sucrose
9,"C[C@@H](NC(=O)[C@@H](N)CC(=O)O)C(=O)NC1C(C)(C)S(=O)(=O)C1(C)C [Example 17, L-Aspartyl-D-alanine N-(2,2,4,4-tetramethyl-1,1-dioxothietan-3-yl)amide]",1000 x sucrose
10,"CSC(C)(C)C(NC(=O)[C@@H](C)NC(=O)[C@@H](N)CC(=O)O)C(C)C (stereo partly drawn) [Example 18, L-Aspartyl-D-alanine N-(2-methylthio-2,4-dimethylpentan-3-yl)amide]",150 x sucrose
11,"CC[C@@H](NC(=O)[C@@H](N)CC(=O)O)C(=O)NC(C1CC1)C1CC1 [Example 20, L-Aspartyl-D-2-aminobutyric acid N-(dicyclopropylcarbinyl)amide]",500 x sucrose
12,"CC[C@@H](NC(=O)[C@@H](N)CC(=O)O)C(=O)NC1C(C)(C)S(=O)(=O)C1(C)C [Example 21, L-Aspartyl-D-2-aminobutyric acid N-(2,2,4,4-tetramethyl-1,1-dioxothietan-3-yl)amide]",200 x sucrose
13,"CC[C@@H](NC(=O)[C@@H](N)CC(=O)O)C(=O)NC(C(C)C)C(C)C [Example 22, L-Aspartyl-D-2-aminobutyric acid N-(2,4-dimethyl-3-pentyl)amide]",100 x sucrose
14,"CC(C)[C@@H](NC(=O)[C@@H](N)CC(=O)O)C(=O)NC(C1CC1)C1CC1 [Example 23, L-Aspartyl-D-valine N-(dicyclopropylcarbinyl)amide]",110 x sucrose
15,"CC(C)NC(=O)[C@H](NC(=O)[C@@H](N)CC(=O)O)C(C)C [Example 24, L-Aspartyl-D-valine N-isopropylamide] (H-Asp-[dV]-NHiPr)",1-2 x sucrose
16,"C[C@@H](NC(=O)[C@@H](N)CC(=O)O)C(=O)NC(C(C)(C)C)C(C)(C)C [Example 25, L-Aspartyl-D-alanine N-(2,2,4,4-tetramethyl-3-pentyl)amide]",450 x sucrose
17,"CC(C)C(NC(=O)[C@@H](C)NC(=O)[C@@H](N)CC(=O)O)C(C)(C)O (stereo partly drawn) [Example 26, L-Aspartyl-D-alanine N-(2-hydroxy-2,4-dimethyl-3-pentyl)amide]",125 x sucrose
18,"C[C@@H](NC(=O)[C@@H](N)CC(=O)O)C(=O)NC(C1CC1)C1CC1 [[I, R^a =CH3, R=CH(Δ)2], L-Aspartyl-D-alanine N-(dicyclopropylcarbinyl)amide]",1200 x sucrose
19,"L-Aspartyl-D-alanine N-(2,2,4,4-tetramethyltetrahydrothiophene-3-yl)amide [Example 14]",500 x sucrose
